Data published in US11083197B2, “Herbicidal composition comprising chromone derivatives and a method for weed control” (INVESTIGACIONES BIOLÓGICAS EN AGROQUÍMICOS ROSARIO S.A., priority 2015, dated 2021).

Legend:
[1] = tested on: creeping bentgrass (A. stolonifera); test: Germination bioassay with creeping bentgrass; assay type: in vivo, Agrostis stolonifera; conditions: 1 mM; 24-well plates; rating scale of 0 to 5
Method: (§1) DCM extract of flowers of A. visnaga (1.6 g) was divided in two 800 mg halves and each one was subjected to column chromatography using an Isolera One system (Biotage), equipped with UV detector (302 and 365 nm) and automatic fraction collector. Separation was performed by normal-phase chromatography column using a SNAP Cartridge KP-Sil (37×157 mm, 50 μm irregular silica, 100 g, Biotage) and a pre-packaged SNAP Samplet Cartridge KP-Sil (37×17 mm, Biotage). A full gradient of hexane:ethyl acetate was used for elution, from 100:0 to 0:100 over 3000 ml. Flow was 40 ml/min and 25 ml fractions were collected. Equal fractions were combined based on similarities on their TLC and chromatogram profiles providing nineteen fractions named I to XIX. All fractions were evaluated for their phytotoxicity on germination bioassay of lettuce (L. sativa) and creeping bentgrass (A. stolonifera).
(§2) A filter paper and 5 lettuce or 10 mg of creeping bentgrass seeds were placed in each well of a 24-well plate. Stock solutions (10×) of test compounds were prepared in acetone. 180 μl of distilled water were added to each well together with 20 μl of stock solution or acetone in solvent control. Final concentration of acetone was 10% v/v. Plates were sealed with Parafilm, and incubated at 26° C. in a growth chamber set at 173 μmol m^−2 s^−1 continuous photosynthetically active radiation. Phytotoxic activity was qualitatively evaluated by visually comparing germination in each well with solvent control at 7 days. A qualitative estimation of phytotoxicity was obtained by using a rating scale of 0 to 5, where 0 was no effect, and 5 was no germination of seeds. This procedure was also used for testing the phytotoxicity of pure compounds on ryegrass. On this experiment 12-well plates were used. 10 seeds were placed per well and final volume was 300 μl in each one. During dose-response bioassays used for IC50 determination, germination percentage and length of plants were measured at 7 days in order to determine the concentration required for 50% germination and growth inhibition (IC50). All experiments were done in triplicate.

lettuce (Lactuca sativa) = test: Germination / dose-response bioassay with lettuce; assay type: in vivo; conditions: 1 mM; 24-well plates; rating scale of 0 to 5
Method: as §1, §2
Using method described in Example 1, compounds of Formula III and IV above were tested against lettuce and ryegrass.
The percentage of germination and length of plants were determined at 7 days. Data represents means of three replicates±SD. The IC50 values, for both germination and growth inhibition by compounds III and IV on lettuce and ryegrass, were obtained from estimated parameters in the regression curves.
Statistical Analysis. Data from dose-response experiments were analyzed by a log-logistic model^37-38 using the dose-response curve module^39 of R software version 2.2.1.^40 Concentrations required for 50% germination or growth inhibition relative to control (IC50 values) were obtained from estimated parameters in the regression curves. The standard error (SE) of each estimation is provided. Data from phytotoxicity bioassays in the laboratory and greenhouse, ROS and cell death quantifications were analyzed by ANOVA using the InfoStat statistical software version 2015,^41 and Scheffe's test was employed to compare the means at α=0.05.

ryegrass = test: Postemergence bioassay with ryegrass in Petri dishes; assay type: in vivo; conditions: Lolium multiflorum, post-emergence, day 6 (4 days after application), read-out: Growth inhibition (%) as percentage of control
Method: Plant length was measured at day 6 (4 days after application of the compounds)
Plant length's axis starts in 5 mm because seeds were pre-incubated in water, so all seedlings were around 5 mm long at the beginning of the treatment.

lettuce = test: Postemergence bioassay with lettuce in Petri dishes; assay type: in vivo; conditions: Lactuca sativa, post-emergence, read-out: Average growth inhibition (%) as percentage of control
Method: Compounds of formula III and IV above were tested at different concentrations in a postemergence bioassay (in Petri dishes) against lettuce. Lettuce seeds were pre-incubated in Petri dishes with a filter paper and water for 2 days. After that, seedlings (15 mm approx.) were moved to a new Petri dish containing 4 mL of an aqueous solution of each compound or commercial herbicide. Plants length was measured at day 6 (4 days after postemergence application of the compounds). The results were compared to those obtained with acetochlor and glyphosate.
Plant length's axis starts in 15 mm because seeds were pre-incubated in water, so all seedlings were around 15 mm long at the beginning of the treatment.

Compound | Phytotoxicity at day 7, Creeping bentgrass [1] | Phytotoxicity at day 7, Lettuce (lettuce (Lactuca sativa)) | further results
Cc1cc(=O)c2c(O)c3ccoc3c(O)c2o1 [4,9-dihydroxy-7-methyl-5H-furo[3,2-g]chromen-5-one] | 1 | 3 | 
COc1c2occc2c(OC)c2c(=O)cc(C(=O)O)oc12 [4,9-dimethoxy-5-oxo-5H-furo[3,2-g]chromen-7-carboxilic acid] | 3 | 3 | 
COc1c2occc2c(O)c2c(=O)cc(C)oc12 [4-hydroxy-9-methoxy-7-methyl-5H-furo[3,2-g]chromen-5-one] | 1 | 2 | 
CCOCN(C(=O)CCl)c1c(C)cccc1CC [Acetochlor, reference compound] |  |  | inhibition at 540 µM (ryegrass; 540 μM): 97%; inhibition at 540 µM (lettuce; 0.54 mM, day 6 (4 days after postemergence application)): 60%
O=c1ccoc2ccccc12 [Chromone, 1-benzopyran-4-one] | 4 | 3 | 
O=C(O)CNCP(=O)(O)O [Glyphosate, reference compound] |  |  | inhibition at 750 µM (ryegrass; 750 μM): 75%; inhibition at 750 µM (lettuce): 45%
COc1c2ccoc2cc2oc(COC3OC(CO)C(O)C(O)C3O)cc(=O)c12 (centres unmarked) [Khelloside, Khellol-glucoside] | 2 | 1 | 
